# In patent US20260374766A1, “METHODS FOR TREATING CANCER” (Antares Therapeutics, Inc., priority 2022, published 2026):
# Where two headings read alike, the source gives them in different places.
# What was measured:
# [1] = molecular target: p53 Y220C (Homo sapiens, UniProt P04637, Y220C); experiment: Luciferase Reporter Assay (Luc), p53 response element, NClH1299 cells with inducible p53 Y220C; type: cell-based; details: for Emax: 10 uM tool compound as positive control
# Procedure, shortened: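 Doxycycline (0.5 ug/mL, 24 h) induces the mutant before a 6-hour compound treatment. Reporter activity is then quantified by One-Glo luminescence.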
# [2] = system: H1299 p53 R273H; experiment: Cell Proliferation Assay (CellTiter-Glo, CTG), H1299 p53 R273H (NClH1299-inducible p53 R273H); type: cell-based; details: Homo sapiens, NCI-H1299, 120 h, CellTiter-Glo, H1299 p53 R273H, 5 days
# Procedure, shortened: (§1)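 NClH1299 lines stably transduced with Tet-inducible p53 Y220C or R273H, plus NUGC3, were treated with compound for 5 days at 250-500 cells/well. IC50 derived from CellTiter-Glo luminescent signal after 10 min room-temperature incubation.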
# [3] = system: H1299 p53 Y220C; experiment: Cell Proliferation Assay (CellTiter-Glo, CTG), H1299 p53 Y220C (NClH1299-inducible p53 Y220C); type: cell-based; details: Homo sapiens, NCI-H1299, 120 h, CellTiter-Glo, H1299 p53 Y220C, 5 days
# Procedure, shortened: as §1
# [4] = molecular target: T1, p53 Y220C mutant protein (amino acid residues 94-293) (Homo sapiens, UniProt P04637, Y220C); experiment: Surface Plasmon Resonance (SPR) assay, Kd_kinetic; type: binding
# T1 construct: p53 Y220C mutant protein (amino acid residues 94-293)
# Procedure, shortened: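 Temperature held at 16 or 20 °C during Biacore 8K runs. Buffer: 50 mM Tris, pH 7.5, 100 mM NaCl, 1 mM DTT, 0.01% Brij35, 0.05% Tween-20, 1% DMSO.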
# [5] = system: NUGC3 p53 Y220C; experiment: Cell Proliferation Assay (CellTiter-Glo, CTG), NUGC3 p53 Y220C; type: cell-based; details: Homo sapiens, NUGC-3, 120 h, CellTiter-Glo, NUGC3 p53 Y220C, 5 days
# Procedure, shortened: as §1
# [6] = molecular target: T1, p53 Y220C mutant protein (amino acid residues 94-293); experiment: Thermal Shift Assay (TSA), dTM; type: binding; details: thermal shift; for ΔTm at 10 µM: 10 uM compound, read-out: TSA P53 Y220C dTM (10 uM); for ΔTm at 100 µM: 100 uM compound, read-out: TSA P53 Y220C dTM (100 uM)
# Procedure, shortened: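 TM is derived by fitting Sypro Orange melt curves (30 °C to 50 °C, 0.03 °C/second) to a Boltzmann two-state model. Beforehand, 5 μM p53 Y220C (94-293) sits with 10 μM or 100 μM compound for 3 hours at 20 °C in HEPES pH7.4 buffer containing 100 mM NaCl and 1% DMSO.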
# [7] = luciferase reporter, NClH1299 inducible p53 Y220C, 6 hour
# [8] = luciferase reporter, NClH1299 inducible p53 Y220C, 6 hour, read-out: Luc P53 Y220C AC50
# [9] = SPR, kinetic KD, p53 Y220C, read-out: SPR P53 Y220C KD kinetic
# [10] = read-out: SPR P53 Y220C KD kinetic
SMILES,"Emax [1, 7] [%]","AC50 [1, 8] [µM]",IC50 [2] [µM],IC50 [3] [µM],"Kd [4, 9] [µM]",ΔTm at 10 µM [6] [°C],ΔTm at 100 µM [6] [°C],"Kd [4, 10] [µM]",IC50 [5] [µM],AC50 [1] [µM],Kd [4] [µM]
CNC(=O)c1ccc(OC)c(NCC#Cc2nc3c(NC4CC5(C4)CN(CC(F)F)C5)cccn3c2SC(F)(F)F)c1 [Example 204],> 90,,≥ 10,0.75 to 1.5,,5 to 10,≥ 10,,0.75 to 1.5,0.75 to 1.5,< 0.01
CNC(=O)c1ccc(OC)c(NCC#Cc2cc3c(N[C@@H]4CCN(C)C[C@@H]4F)nccn3c2SC(F)(F)F)n1 [Example 207],> 90,< 0.75,≥ 10,< 0.75,< 0.01,≥ 10,,,< 0.75,,
CNC(=O)c1ccc(NCC#Cc2nn3c(N[C@@H]4CCN(C)C[C@@H]4F)nccc3c2SC(F)F)c(OC)c1 [Example 215],> 90,< 0.75,≥ 10,< 0.75,< 0.01,≥ 10,,,< 0.75,,
CNC(=O)c1ccc(OC)c(NCC#Cc2nc3c(N[C@@H]4CCNC[C@@H]4F)cccn3c2SC(F)(F)F)n1 [Example 217],70 to 80,< 0.75,5 to 8,< 0.75,,≥ 10,≥ 10,< 0.01,< 0.75,,
CNC(=O)c1ccc(OC)c(NCC#Cc2nc3c(N[C@@H]4CCNC[C@@H]4F)cccn3c2SC(F)(F)F)c1 [Example 218],80 to 90,< 0.75,≥ 10,< 0.75,< 0.01,≥ 10,≥ 10,,< 0.75,,

# Further lines, with some results ahead:
"Emax [1, 7] [%]","AC50 [1, 8] [µM]",IC50 [2] [µM],IC50 [3] [µM],"Kd [4, 9] [µM]",ΔTm at 10 µM [6] [°C],ΔTm at 100 µM [6] [°C],"Kd [4, 10] [µM]",SMILES,IC50 [5] [µM],AC50 [1] [µM],Kd [4] [µM]
70 to 80,< 0.75,8 to 10,< 0.75,< 0.01,≥ 10,≥ 10,,CNC(=O)c1ccc(OC)c(NCC#Cc2nc3c(N[C@@H]4C[C@H]5CC[C@H](N5)[C@@H]4F)cccn3c2SC(F)(F)F)c1 [Example 202],< 0.75,,
70 to 80,< 0.75,5 to 8,< 0.75,< 0.01,≥ 10,≥ 10,,CNC(=O)c1ccc(OC)c(NCC#Cc2nc3c(N[C@H]4C[C@@H]5CC[C@@H](N5)[C@H]4F)cccn3c2SC(F)(F)F)c1 [Example 203],< 0.75,,
> 90,< 0.75,≥ 10,< 0.75,< 0.01,≥ 10,≥ 10,,"CNC(=O)c1ccc(NCC#Cc2nc3c(N[C@@H]4CCN(C)C[C@@H]4F)nccn3c2SC(F)(F)F)c(OC)c1 [Example 206, 4-{[3-(8-{[(3S,4R)-3-fluoro-1-methylpiperidin-4-yl]amino}-3-[(trifluoromethyl)sulfanyl]imidazo[1,2-a]pyrazin-2-yl)prop-2-yn-1-yl]amino}-3-methoxy-N-methylbenzamide]",< 0.75,,
80 to 90,< 0.75,≥ 10,< 0.75,< 0.01,≥ 10,,,CNC(=O)c1ccc(OC)c(NCC#Cc2nc3c(N[C@@H]4CCN(C)C[C@@H]4F)nccn3c2SC(F)(F)F)c1 [Example 212],< 0.75,,
70 to 80,< 0.75,≥ 10,< 0.75,,≥ 10,≥ 10,< 0.01,CNC(=O)c1ccc(OC)c(NCC#Cc2nc3c(N[C@@H]4CCN(C)C[C@@H]4F)cccn3c2CC(F)(F)F)n1 [Example 213],< 0.75,,
